By MIC is commonly meant the least concentration at which growth counts as inhibited. Low values mean greater potency, high ones weaker potency.

In brackets after ≈: the same amount, converted by molar mass.

Among the test systems are Candida albicans; Pseudomonas aeruginosa 1; Pseudomonas aeruginosa 2; Pseudomonas aeruginosa; Escherichia coli K88; Escherichia coli UB1005; Candida albicans C627; Escherichia coli DC2.
Holding throughout (assay): ≥ marks a high value that may be exact or a test limit, other limits are often not marked, values filed in µg/mL are converted to µM
For assay [1], the system named is Pseudomonas aeruginosa ATCC 27853.
The test system of assay [2] is Pseudomonas aeruginosa PAO1.
For assay [3], the system named is Pseudomonas aeruginosa ATCC 15692.
Assay [4] concerns Corynebacterium jeikeium ATCC BAA-949.
The test system of assay [5] is Staphylococcus aureus ATCC 43300.
Assay [6] deals with Staphylococcus aureus ATCC 29213.
The subject of assay [7] is Lacticaseibacillus rhamnosus 1.0911.
In assay [8] the test system is Lacticaseibacillus rhamnosus 8014.
The test system of assay [9] is Lacticaseibacillus rhamnosus 1.0936.
Assay [10] concerns Escherichia coli O157:H7 CICC 21530.
The subject of assay [11] is Salmonella enterica subsp. enterica serovar Pullorum C79-13.
For assay [12], the system named is Streptococcus agalactiae BNCC 185941.
In assay [13] the test system is Lacticaseibacillus rhamnosus 1.9021.
For assay [14], the system named is Salmonella enterica subsp. enterica serovar Typhimurium ATCC 14028.
The test system of assay [15] is Salmonella enterica subsp. enterica serovar Choleraesuis CVCC 503.
Assay [16] concerns Staphylococcus epidermidis ATCC 12228.
The test system of assay [17] is Pseudomonas aeruginosa H1001.
Assay [18] deals with Aeromonas salmonicida 99-1.
Assay [19] concerns Pseudomonas aeruginosa Z61.
Assay [20] deals with Staphylococcus aureus C623.
The test system of assay [21] is Salmonella enterica serovar typhimurium MS7953s.
The test system of assay [22] is Salmonella enterica subsp. enterica serovar Typhimurium ATCC 14028s.
Assay [23] concerns Aeromonas salmonicida 97-4.
Assay [24] deals with Staphylococcus epidermidis C621.
The test system of assay [25] is Pseudomonas aeruginosa K799.
Assay [26] relates to Escherichia coli CGSC 4908.

As for `CC[C@H](C)[C@H](NC(=O)CN)C(=O)N[C@@H](Cc1ccccc1)C(=O)N[C@@H](CO)C(=O)N[C@@H](CCCCN)C(=O)N[C@@H](CC(C)C)C(=O)N[C@@H](C)C(=O)NCC(=O)N[C@@H](CCCCN)C(=O)N[C@@H](CCCCN)C(=O)N[C@@H](CC(C)C)C(=O)N[C@@H](CCCCN)C(=O)N[C@@H](CC(N)=O)C(=O)N[C@@H](CC(C)C)C(=O)N[C@@H](CC(C)C)C(=O)N[C@H](C(=O)N[C@@H](CO)C(=O)NCC(N)=O)[C@@H](C)CC` [GIFSKLAGKKLKNLLISG], the MIC came to 2.83 µM (≈ 5.34 µg/mL) in the assay with Candida albicans; 8 µM (≈ 15.1 µg/mL) against Pseudomonas aeruginosa 1; 8 µM (≈ 15.1 µg/mL) in assay [1]; 16 µM (≈ 30.2 µg/mL) in the assay on Pseudomonas aeruginosa 2; 8 µM (≈ 15.1 µg/mL) in assay [2]; 8 µM (≈ 15.1 µg/mL) in assay [3]. For the same molecule, the MIC in the assay with Pseudomonas aeruginosa was 8 µM (≈ 15.1 µg/mL); in assay [4], 4 µM (≈ 7.55 µg/mL).

Turning to `CC(C)C[C@H](NC(=O)CNC(=O)[C@H](CC(C)C)NC(=O)[C@H](Cc1c[nH]c2ccccc12)NC(=O)[C@H](CC(C)C)NC(=O)CNC(=O)[C@H](CC(C)C)NC(=O)[C@H](CCCCN)NC(=O)[C@H](CCCCN)NC(=O)CN)C(=O)N[C@@H](CCCCN)C(=O)N[C@@H](CCCCN)C(=O)NCC(N)=O` [GKKLGLWLGLKKG], the minimal inhibitory concentration (MIC) in assay [1] was 16 µM (≈ 22.3 µg/mL); in assay [5], over 128 µM; in assay [6], over 128 µM; in assay [7] it was at least 128 µM; in the assay with Escherichia coli K88 it was 4 µM (≈ 5.59 µg/mL); in assay [8], at least 128 µM. For the same molecule, the MIC is at least 128 µM in assay [9]; 32 µM (≈ 44.7 µg/mL) in assay [2]; 8 µM (≈ 11.2 µg/mL) in [10]; 16 µM (≈ 22.3 µg/mL) in assay [11]; at least 128 µM in [12]; at least 128 µM in [13]. In addition, the minimum inhibitory concentration (MIC) in assay [14] is 32 µM (≈ 44.7 µg/mL); in [15] it was at least 32 µM; in assay [16], over 128 µM.

Consider `CC[C@H](C)[C@H](NC(=O)[C@H](C)NC(=O)[C@H](CC(N)=O)NC(=O)[C@@H](N)CCSC)C(=O)N[C@@H](CCCCN)C(=O)N[C@@H](CC(C)C)C(=O)N[C@@H](CC(C)C)C(=O)N[C@@H](CS)C(=O)N[C@@H](CCCN=C(N)N)C(=O)N[C@H](C(=O)O)C(C)C` [MNAIKLLCRV], for which, in [17], the MIC amounted to 21.5 µM (≈ 25 µg/mL).

Take `CC(=O)[C@H](CC(C)C)NC(=O)[C@H](Cc1ccc(O)cc1)NC(=O)[C@H](Cc1cnc[nH]1)NC(=O)[C@H](CC(=O)O)NC(=O)[C@@H](NC(=O)[C@H](C)NC(=O)[C@H](CC(C)C)NC(=O)CNC(=O)CNC(=O)[C@@H](NC(=O)[C@@H](NC(=O)[C@H](CCCCN)NC(=O)CNC(=O)[C@@H](NC(=O)[C@H](CCCCN)NC(=O)[C@H](CCCCN)NC(=O)[C@H](C)NC(=O)[C@H](CCCNC(=N)N)NC(=O)[C@H](CC(N)=O)NC(=O)[C@H](Cc1ccccc1)NC(=O)[C@H](Cc1c[nH]c2ccccc12)NC(=O)[C@H](CCCCN)NC(=O)[C@H](CCCCN)NC(=O)[C@H](Cc1c[nH]c2ccccc12)NC(=O)CN)C(C)C)[C@@H](C)O)C(C)C)C(C)C` [GWKKWFNRAKKVGKTVGGLAVDHYL]: the MIC in assay [18] stood at 0.7 µM (≈ 2 µg/mL); in assay [19], 0.35 µM (≈ 0.999 µg/mL); in [20], 5.6 µM (≈ 16 µg/mL); with Escherichia coli UB1005 it was 2.8 µM (≈ 7.99 µg/mL); in the assay with Candida albicans C627, 1.4 µM (≈ 4 µg/mL); in [21] it was 0.7 µM (≈ 2 µg/mL). The minimum inhibitory concentration (MIC) in assay [22] amounted to 2.8 µM (≈ 7.99 µg/mL); with Escherichia coli DC2, 0.7 µM (≈ 2 µg/mL); in [23], 0.7 µM (≈ 2 µg/mL); in assay [24], 2.8 µM (≈ 7.99 µg/mL); in assay [25] it was 1.4 µM (≈ 4 µg/mL); in [26], 0.7 µM (≈ 2 µg/mL).

`CC(C)C[C@H](NC(=O)[C@H](Cc1ccc(O)cc1)NC(=O)[C@H](C)NC(=O)[C@@H](NC(=O)[C@H](CC(C)C)NC(=O)[C@H](C)NC(=O)[C@H](C)NC(=O)[C@H](CCCCN)NC(=O)CNC(=O)[C@@H](NC(=O)[C@H](Cc1cnc[nH]1)NC(=O)[C@H](CCCCN)NC(=O)CNC(=O)[C@@H](NC(=O)[C@H](Cc1cnc[nH]1)NC(=O)[C@@H](NC(=O)[C@H](C)NC(=O)[C@H](CCCCN)NC(=O)[C@H](CCCCN)NC(=O)[C@H](Cc1ccccc1)NC(=O)[C@H](Cc1c[nH]c2ccccc12)NC(=O)[C@H](CCCCN)NC(=O)CNC(=O)[C@H](Cc1c[nH]c2ccccc12)NC(=O)[C@@H](N)CCCN=C(N)N)[C@@H](C)O)C(C)C)C(C)C)[C@@H](C)O)C(N)=O` [RWGKWFKKATHVGKHVGKAALTAYL]: the MIC was determined as 1.4 µM (≈ 4 µg/mL) in assay [18]; 0.701 µM (≈ 2 µg/mL) in [19]; 22.4 µM (≈ 64 µg/mL) in assay [20]; 1.4 µM (≈ 4 µg/mL) against Escherichia coli UB1005; 5.61 µM (≈ 16 µg/mL) with Candida albicans C627; 0.701 µM (≈ 2 µg/mL) in [21]. Moreover, the MIC in assay [22] came out at 2.8 µM (≈ 8 µg/mL); against Escherichia coli DC2, 1.4 µM (≈ 4 µg/mL); in assay [23], 0.701 µM (≈ 2 µg/mL); in assay [24] it was 22.4 µM (≈ 64 µg/mL); in [25], 1.4 µM (≈ 4 µg/mL); in assay [26], 1.4 µM (≈ 4 µg/mL).

As for `CC(C)C[C@H](NC(=O)CNC(=O)[C@H](CCCCN)NC(=O)[C@H](CC(C)C)NC(=O)[C@H](CC(C)C)NC(=O)[C@H](CCCCN)NC(=O)[C@@H](N)CCCCN)C(=O)N[C@@H](CC(C)C)C(=O)N[C@@H](CCCCN)C(=O)NCC(=O)N[C@@H](Cc1c[nH]c2ccccc12)C(N)=O` [KKLLKGLLKGW], the minimum inhibitory concentration (MIC) is 32 µM (≈ 41 µg/mL) in [1]; over 128 µM in assay [5]; over 128 µM in [6]; at least 128 µM in [7]; 16 µM (≈ 20.5 µg/mL) against Escherichia coli K88; at least 128 µM in [8]. Moreover, the MIC was at least 128 µM in assay [9]; 64 µM (≈ 82.1 µg/mL) in assay [2]; at least 64 µM in [10]; at least 32 µM in assay [11]; at least 128 µM in [12]; at least 128 µM in [13]. In addition, the minimal inhibitory concentration (MIC) in assay [14] was 32 µM (≈ 41 µg/mL); in [15] it was at least 64 µM; in assay [16], over 128 µM.

On to `CC[C@H](C)[C@H](NC(=O)[C@H](CCCN=C(N)N)NC(=O)[C@H](CCCN=C(N)N)NC(=O)[C@@H]1CCCN1C(=O)[C@@H]1CCCN1C(=O)[C@H](CCCN=C(N)N)NC(=O)[C@@H]1CCCN1C(=O)[C@H](CCCN=C(N)N)NC(=O)[C@@H]1CCCN1C(=O)[C@H](CC(C)C)NC(=O)[C@H](Cc1ccc(O)cc1)NC(=O)[C@@H]1CCCN1C(=O)[C@@H]1CCCN1C(=O)[C@H](CCCCN)NC(=O)[C@H](CC(=O)O)NC(=O)[C@@H](N)C(C)C)C(=O)N[C@@H](Cc1ccc(O)cc1)C(=O)N[C@@H](Cc1ccc(O)cc1)C(=O)N[C@@H](CCCN=C(N)N)C(=O)NCC(=O)O` [VDKPPYLPRPRPPRRIYYRG], for which, in assay [17], the minimal inhibitory concentration (MIC) is 0.12 µM (≈ 0.3 µg/mL).

The values are drawn from DBAASP.
